In PubChem BioAssay (NCI):
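Growth conditions: 96-well plates. Treatment: test compound, 48 hours, 5 concentrations. Analysis: linear interpolation between bracketing concentrations; unreached endpoints set to highest concentration. At the GI50, growth is halved. Definition used: TGI = concentration required for complete inhibition of growth.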

What was measured:
Test in all cases: growth of human tumour cells (NCI), 48 h
[1] = system: 786-0 renal
[2] = system: A498 renal
[3] = system: A549 NSCLC
[4] = system: ACHN renal
[5] = system: BT-549 breast
[6] = system: CAKI-1 renal
[7] = system: CCRF-CEM leukemia
[8] = system: COLO 205 colon
[9] = system: DU-145 prostate
[10] = system: HCC-2998 colon
[11] = system: HCT-116 colon
[12] = system: HCT-15 colon
[13] = system: HL-60(TB) leukemia
[14] = system: HOP-62 NSCLC
[15] = system: HOP-92 NSCLC
[16] = system: HS 578T breast
[17] = system: HT29 colon
[18] = system: IGROV1 ovarian
[19] = system: K-562 leukemia
[20] = system: KM12 colon
[21] = system: LOX IMVI melanoma
[22] = system: M14 melanoma
[23] = system: MALME-3M melanoma
[24] = system: MCF7 breast
[25] = system: MDA-MB-231 breast
[26] = system: MDA-MB-435
[27] = system: MOLT-4 leukemia
[28] = system: NCI-H226 lung
[29] = system: NCI-H23 lung
[30] = system: NCI-H460 lung
[31] = system: NCI-H522 lung
[32] = system: NCI/ADR-RES ovarian
[33] = system: OVCAR-3 ovarian
[34] = system: OVCAR-5 ovarian
[35] = system: OVCAR-8 ovarian
[36] = system: PC-3 prostate
[37] = system: RXF 393 renal
[38] = system: SF-268 CNS
[39] = system: SF-295 CNS
[40] = system: SF-539 CNS
[41] = system: SK-MEL-2 melanoma
[42] = system: SK-MEL-28 melanoma
[43] = system: SK-MEL-5 melanoma
[44] = system: SK-OV-3 ovarian
[45] = system: SN12C renal
[46] = system: SNB-19 CNS
[47] = system: SNB-75 CNS
[48] = system: SR leukemia
[49] = system: SW-620 colon
[50] = system: T-47D breast
[51] = system: TK-10 renal
[52] = system: U251 CNS
[53] = system: UACC-257 melanoma
[54] = system: UACC-62 melanoma
[55] = system: UO-31 renal

Q: What does the source list for `Cn1c(C(N)=O)cc2c1-c1nc(Nc3ccccc3)ncc1CCC2`?
A: GI50 [1]: 4.55 µM; TGI [1]: 34.5 µM; GI50 [2]: 0.204 µM; TGI [2]: 0.955 µM; GI50 [3]: 3.67 µM; TGI [3]: 22 µM; GI50 [4]: 3.61 µM; TGI [4]: 50.5 µM; GI50 [5]: 3.29 µM; TGI [5]: 27.8 µM; GI50 [6]: 2.11 µM; TGI [6]: 15.9 µM; GI50 [7]: 6.21 µM; TGI [7]: > 100 µM; GI50 [8]: 4.77 µM; TGI [8]: 17.7 µM; GI50 [9]: 6.18 µM; TGI [9]: 62.7 µM; GI50 [10]: 10.3 µM; TGI [10]: 33.3 µM; GI50 [11]: 3.52 µM; TGI [11]: 41.7 µM; GI50 [12]: 3.4 µM; TGI [12]: 28.6 µM; GI50 [13]: 6.77 µM; TGI [13]: 49.7 µM; GI50 [14]: 2.96 µM; TGI [14]: 52.6 µM; GI50 [15]: 1.47 µM; TGI [15]: 8.32 µM; GI50 [16]: 1.97 µM; TGI [16]: 6.9 µM; GI50 [17]: 10.6 µM; TGI [17]: 34.7 µM; GI50 [18]: 3.87 µM; TGI [18]: 24.2 µM; GI50 [19]: 4.65 µM; TGI [19]: > 100 µM; GI50 [20]: 1.48 µM; TGI [20]: 18.3 µM; GI50 [21]: 4.86 µM; TGI [21]: 24.8 µM; GI50 [22]: 4.73 µM; TGI [22]: 41.1 µM; GI50 [23]: 7.63 µM; TGI [23]: 57 µM; GI50 [24]: 4.41 µM; TGI [24]: > 100 µM; GI50 [25]: 5.59 µM; TGI [25]: > 100 µM; GI50 [26]: 3.88 µM; TGI [26]: > 100 µM; GI50 [27]: 4.21 µM; TGI [27]: 50.4 µM; GI50 [28]: 0.902 µM; TGI [28]: 33.7 µM; GI50 [29]: 4.91 µM; TGI [29]: 32.9 µM; GI50 [30]: 4.2 µM; TGI [30]: > 100 µM; GI50 [31]: 4.13 µM; TGI [31]: 22.7 µM; GI50 [32]: 6.3 µM; TGI [32]: 49.8 µM; GI50 [33]: 10.1 µM; TGI [33]: 57.1 µM; GI50 [34]: 2.54 µM; TGI [34]: 25.1 µM; GI50 [35]: 7.06 µM; TGI [35]: 69.3 µM; GI50 [36]: 5.19 µM; TGI [36]: 41.6 µM; GI50 [37]: 1.44 µM; TGI [37]: 5.34 µM; GI50 [38]: 5.52 µM; TGI [38]: > 100 µM; GI50 [39]: 4.65 µM; TGI [39]: > 100 µM; GI50 [40]: 3.93 µM; TGI [40]: 28 µM; GI50 [41]: 5.42 µM; TGI [41]: 23.1 µM; GI50 [42]: 8.74 µM; TGI [42]: 61.1 µM; GI50 [43]: 11.4 µM; TGI [43]: 25.8 µM; GI50 [44]: 3.51 µM; TGI [44]: 20.8 µM; GI50 [45]: 4.18 µM; TGI [45]: > 100 µM; GI50 [46]: 11.5 µM; TGI [46]: > 100 µM; GI50 [47]: 1.61 µM; TGI [47]: 8.35 µM; GI50 [48]: 4.47 µM; TGI [48]: 33.1 µM; GI50 [49]: 6.31 µM; TGI [49]: 97.7 µM; GI50 [50]: 7.12 µM; TGI [50]: 37.4 µM; GI50 [51]: 3.97 µM; TGI [51]: 52.3 µM; GI50 [52]: 3.55 µM; TGI [52]: > 100 µM; GI50 [53]: 19.7 µM; TGI [53]: 88.7 µM; GI50 [54]: 3.92 µM; TGI [54]: 17.7 µM; GI50 [55]: 1.92 µM; TGI [55]: 14.3 µM
